# Test results published in patent EP3045469A1, “POLYMYXIN DERIVATIVE AND USES THEREOF” (priority 2015, dated 2016).
# Where two headings read alike, the source gives them in different places.
# Legend:
# Escherichia coli C175-94 = assay: Murine urinary infection efficacy study; format: in vivo
# Method: The study used 64 outbred, OF-1 female mice (Charles River, France) weighing 28 -32 grams and Escherichia coli C175-94 (serotype O8:K48:H4), a clinical isolate elaborating type 1fimbriae. The peptides were NAB815 (Lot 1054308) and polymyxin B (Sigma-Aldrich, batch BCBF8382V). The study was performed by Statens Serum Institut, Copenhagen, Denmark.
# Three days before the start of the study and during the study, the mice had free access to 5% glucose as drinking water.
# On day 0, the urine was removed from the bladder by gently pressing the abdomen, Thereafter, the mouse was anaesthetized with approximately 0.15 ml of Zoletil mix s.c. A syringe with polyethylene catheter (Becton Dickison) containing the bacterial suspension was inserted via the urethra into the bladder and 50 µl of the bacterial inoculum was slowly injected into the bladder. Hereafter, the mouse was left in the cage. Mice were kept in a warming cabinet and were under surveillance until fully awake.
# After measuring the colony forming units (CFUs), the inoculum was determined to contain 9.38 log10 CFU/ml, corresponding to 8.08 log10 CFU/mouse.
# On day 1 and on day 2 postinfection, the mice were treated subcutaneously with solutions (0.2 ml) containing NAB815, polymyxin B or vehicle (0.9% NaCl) twice a day. The treatment groups (six mice in each) were the following: vehicle control; NAB815, 0.25 mg/kg/dose; NAB815, 0.5 mg/kg/dose; NAB815, 1 mg/kg/dose; NAB815, 2 mg/kg/dose; polymyxin B, 0.25 mg/kg/dose; polymyxin B, 0.5 mg/kg/dose; polymyxin B, 1 mg/kg/dose; and polymyxin B, 2 mg/kg/dose. In addition, one group served as a pretreatment control to help to assess as how the infection has proceeded before the start of the treatment on day 1 postinfection.
# On days 1, 2 and 3 postinfection urine was sampled for colony counts. On day 1 postinfection (pretreatment control group) and on day 3 postinfection (all the other groups) after the urine sample was taken, mice were sacrificed by cervical dislocation and bladder and kidneys were removed aseptically. The bladder and kidneys were stored at -80 °C and later homogenized in 0.5 and 1 ml saline, respectively.
# CFUs in urine were determined immediately within 2-3 hours after sampling. Frozen organs were thawed and homogenized with steel beads on a tissue lyser. All samples, urine, kidney and bladder, were 10 fold diluted in saline and 20-µl spots were applied on blood agar plates in duplicates. In addition, undiluted samples of urine (2-100 µl depending on the amount of urine) were spread on a separate agar plate to determine the lowest possible detection level of the colony counts. All agar plates were incubated 18-22 h at 35 °C in ambient air.
# K. pneumoniae JMI 27068 = assay: MIC assay (CLSI broth microdilution; checkerboard with rifampin); format: cell-based, Klebsiella pneumoniae; details: in combination with rifampin (0.25 µg/mL), duplicate checkerboard assays; polymyxin-nonsusceptible strain
# Method: (§1) Synergy studies were performed by using polymyxin derivatives in combination with rifampin, a model compound for such antibacterial agents that the intact outer membrane of Gram-negative bacteria acts as a permeability barrier.
# [1] = dogs; cited from earlier work
# [2] = rats; cited from earlier work
# P. aeruginosa JMI 7445 = tested on: P. aeruginosa JMI 7445
# Method: as §1
# A. baumannii JMI 48125 = tested on: A. baumannii JMI 48125
# Method: as §1
# K. pneumoniae JMI 27072 = tested on: K. pneumoniae JMI 27072
# Method: as §1
# E. coli ATCC 25922 = tested on: E. coli ATCC 25922
# Method: as §1
# A. baumannii ATCC 19606 = tested on: A. baumannii ATCC 19606
# Method: as §1
# P. aeruginosa ATCC 27853 = tested on: P. aeruginosa ATCC 27853
# Method: as §1
# E. coli JMI 3328 = tested on: E. coli JMI 3328
# Method: as §1
# K. pneumoniae ATCC 43816 = tested on: K. pneumoniae ATCC 43816
# Method: as §1
# A. baumannii CMI 417 = assay: MIC assay (CLSI broth microdilution; checkerboard with rifampin); format: cell-based, Acinetobacter baumannii; details: in combination with rifampin (0.25 µg/mL), duplicate checkerboard assays; polymyxin-nonsusceptible strain
# Method: as §1
# [3] = patients, in selected materials; cited from earlier work
# [4] = monkeys; cited from earlier work
# [5] = of all the 24 mice treated at 0.25-2 mg/kg/dose
# [6] = alone, Müller-Hinton II broth, 35°C, 20 hours
# [7] = in combination with rifampin (0.25 µg/mL), duplicate checkerboard assays
substance,measurement,setting,value
Polymyxin B,dose-response in the CFUs in the bladder and in the kidneys,"Escherichia coli C175-94; mice, 0.25-2 mg/kg/dose subcutaneously twice a day",did not show any dose-response tendency
same,"CFU levels in urine, day 3 versus pretreatment control group on day 1 postinfection","Escherichia coli C175-94; mice, any dose group (0.25, 0.5, 1, 2 mg/kg/dose) subcutaneously twice a day",no significant differences
same,number of mice with bacterial levels below the detection limit in the kidneys,Escherichia coli C175-94; [5],10
same,number of mice with bacterial levels below the detection limit in the urine,Escherichia coli C175-94; [5],1
same,MIC,K. pneumoniae JMI 27068,1 µg/mL
same,S-Crea and BUN response,[1],elicited a rapid onset of S-Crea and BUN response
same,S-Crea and BUN response,[2],lack of response
same,MIC,P. aeruginosa JMI 7445; [6],2 µg/mL
same,MIC,P. aeruginosa JMI 7445; [7],1 µg/mL
same,MIC,A. baumannii JMI 48125; [6],2 µg/mL
same,MIC,A. baumannii JMI 48125; [7],1 µg/mL
same,MIC,K. pneumoniae JMI 27072; [6],2 µg/mL
same,MIC,K. pneumoniae JMI 27072; [7],1 µg/mL
same,MIC,E. coli ATCC 25922; [6],2 µg/mL
same,MIC,E. coli ATCC 25922; [7],0.5 to 1 µg/mL
same,MIC,A. baumannii ATCC 19606; [6],2 µg/mL
same,MIC,A. baumannii ATCC 19606; [7],0.5 µg/mL
same,MIC,P. aeruginosa ATCC 27853; [6],2 µg/mL
same,MIC,P. aeruginosa ATCC 27853; [7],1 µg/mL
same,MIC,E. coli JMI 3328; [6],2 µg/mL
same,MIC,E. coli JMI 3328; [7],0.5 to 1 µg/mL
same,MIC,K. pneumoniae ATCC 43816; [6],2 µg/mL
same,MIC,K. pneumoniae ATCC 43816; [7],0.5 to 1 µg/mL
same,MIC,A. baumannii CMI 417,1 µg/mL
same,nephrotoxicity rate,[3],≤ 55%
same,S-Crea and BUN response,[4],elicited a rapid onset of S-Crea and BUN response
